{
  "source": "paper PMC12090182",
  "about": "“Repurposing of the RIPK1-Selective Benzo[1,4]oxazepin-4-one Scaffold for the Development of a Type III LIMK1/2 Inhibitor” (ACS Chemical Biology, 2025)",
  "experiment_in_all_cases": "scanMAX KINOMEscan (Eurofins)",
  "assay_type_in_all_cases": "binding",
  "key": {"ABL1-nonphosphorylated": {"biological_target": "ABL1-nonphosphorylated (Homo sapiens, UniProt P00519)", "sequence (P00519 whole entry)": "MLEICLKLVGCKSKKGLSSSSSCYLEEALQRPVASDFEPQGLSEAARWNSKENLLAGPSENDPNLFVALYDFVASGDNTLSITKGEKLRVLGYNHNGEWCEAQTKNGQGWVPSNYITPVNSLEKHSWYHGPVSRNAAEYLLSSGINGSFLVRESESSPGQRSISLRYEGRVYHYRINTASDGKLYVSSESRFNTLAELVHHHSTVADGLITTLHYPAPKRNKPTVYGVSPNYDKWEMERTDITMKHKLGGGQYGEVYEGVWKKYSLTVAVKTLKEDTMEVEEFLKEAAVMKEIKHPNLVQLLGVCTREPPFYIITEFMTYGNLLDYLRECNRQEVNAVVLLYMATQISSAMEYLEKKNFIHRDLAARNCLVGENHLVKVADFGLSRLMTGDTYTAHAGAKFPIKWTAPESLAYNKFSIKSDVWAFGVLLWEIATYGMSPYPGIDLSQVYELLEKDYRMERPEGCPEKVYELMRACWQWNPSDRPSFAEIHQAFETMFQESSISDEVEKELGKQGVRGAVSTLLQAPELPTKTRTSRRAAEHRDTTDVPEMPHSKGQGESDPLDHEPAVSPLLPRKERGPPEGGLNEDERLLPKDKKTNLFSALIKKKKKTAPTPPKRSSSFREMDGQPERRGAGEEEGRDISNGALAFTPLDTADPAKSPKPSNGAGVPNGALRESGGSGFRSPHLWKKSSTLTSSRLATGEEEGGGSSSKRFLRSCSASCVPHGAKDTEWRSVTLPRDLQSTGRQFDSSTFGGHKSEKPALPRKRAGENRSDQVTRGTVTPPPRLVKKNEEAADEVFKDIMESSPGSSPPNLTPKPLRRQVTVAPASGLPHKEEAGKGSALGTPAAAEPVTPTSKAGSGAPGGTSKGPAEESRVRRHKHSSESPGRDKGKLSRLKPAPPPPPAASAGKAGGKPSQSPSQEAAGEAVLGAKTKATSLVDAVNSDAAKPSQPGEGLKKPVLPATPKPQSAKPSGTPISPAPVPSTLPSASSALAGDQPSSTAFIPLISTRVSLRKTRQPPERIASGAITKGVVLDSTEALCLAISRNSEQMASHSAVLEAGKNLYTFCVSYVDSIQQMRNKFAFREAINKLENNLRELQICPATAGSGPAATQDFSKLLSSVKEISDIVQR", "details": "read-out: Percent Control", "description": "(§1) Supplement cb5c00097_si_002.xlsx, sheet \"Table S6 (Eurofins Selectivity)\" | column: Percent Control"}, "ACVRL1": {"biological_target": "ACVRL1 (Homo sapiens, UniProt P37023)", "details": "1000 nM, read-out: Percent Control", "description": "as §1"}, "AKT1": {"biological_target": "AKT1 (Homo sapiens, UniProt P31749)", "details": "1000 nM, read-out: Percent Control", "description": "as §1"}, "AURKA": {"biological_target": "AURKA (Homo sapiens, UniProt O14965)", "details": "1000 nM, read-out: Percent Control", "description": "as §1"}, "AXL": {"biological_target": "AXL (Homo sapiens, UniProt P30530)", "sequence (P30530 26-894)": "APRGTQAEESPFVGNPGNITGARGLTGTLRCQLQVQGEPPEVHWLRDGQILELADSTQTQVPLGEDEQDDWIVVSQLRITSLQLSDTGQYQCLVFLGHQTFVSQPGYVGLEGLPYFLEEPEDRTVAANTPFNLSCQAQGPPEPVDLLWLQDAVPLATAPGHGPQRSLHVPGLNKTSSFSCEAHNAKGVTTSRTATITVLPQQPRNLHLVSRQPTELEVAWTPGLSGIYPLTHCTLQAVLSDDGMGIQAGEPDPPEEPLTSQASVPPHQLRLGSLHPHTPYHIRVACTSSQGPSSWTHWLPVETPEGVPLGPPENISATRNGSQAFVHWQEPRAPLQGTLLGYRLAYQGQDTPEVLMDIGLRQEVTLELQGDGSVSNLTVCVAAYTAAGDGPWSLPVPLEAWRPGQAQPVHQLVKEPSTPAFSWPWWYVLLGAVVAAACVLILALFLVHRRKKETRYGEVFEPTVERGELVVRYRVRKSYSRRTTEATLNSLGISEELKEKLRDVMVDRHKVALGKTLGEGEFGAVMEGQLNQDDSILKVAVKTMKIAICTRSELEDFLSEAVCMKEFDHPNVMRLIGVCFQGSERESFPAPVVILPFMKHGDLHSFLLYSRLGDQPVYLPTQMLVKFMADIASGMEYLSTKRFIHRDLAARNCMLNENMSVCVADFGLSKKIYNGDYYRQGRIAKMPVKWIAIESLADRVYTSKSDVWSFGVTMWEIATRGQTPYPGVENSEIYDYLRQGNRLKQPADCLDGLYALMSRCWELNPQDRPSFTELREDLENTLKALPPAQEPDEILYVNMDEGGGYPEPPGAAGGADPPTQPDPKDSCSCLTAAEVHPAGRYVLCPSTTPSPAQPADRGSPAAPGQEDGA", "details": "read-out: Percent Control", "description": "as §1"}, "BMX": {"biological_target": "BMX (Homo sapiens, UniProt P51813)", "sequence (P51813 whole entry)": "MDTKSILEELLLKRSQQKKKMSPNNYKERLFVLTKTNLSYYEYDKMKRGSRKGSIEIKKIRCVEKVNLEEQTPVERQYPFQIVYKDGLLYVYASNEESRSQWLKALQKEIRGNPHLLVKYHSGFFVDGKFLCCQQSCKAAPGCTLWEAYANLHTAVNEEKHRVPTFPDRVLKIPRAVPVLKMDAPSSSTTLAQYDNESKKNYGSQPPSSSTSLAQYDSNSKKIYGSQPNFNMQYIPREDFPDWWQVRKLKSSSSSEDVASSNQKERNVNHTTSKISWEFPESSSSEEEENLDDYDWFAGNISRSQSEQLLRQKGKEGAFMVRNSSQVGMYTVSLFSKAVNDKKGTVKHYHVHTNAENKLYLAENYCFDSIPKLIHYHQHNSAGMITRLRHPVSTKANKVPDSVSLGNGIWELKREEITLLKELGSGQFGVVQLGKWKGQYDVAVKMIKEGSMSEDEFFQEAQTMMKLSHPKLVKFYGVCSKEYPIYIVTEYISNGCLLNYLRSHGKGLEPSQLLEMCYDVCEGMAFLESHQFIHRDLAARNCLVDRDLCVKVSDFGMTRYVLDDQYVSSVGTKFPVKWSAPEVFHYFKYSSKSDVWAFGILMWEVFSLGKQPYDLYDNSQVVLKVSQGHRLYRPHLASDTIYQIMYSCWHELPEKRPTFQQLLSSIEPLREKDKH", "details": "read-out: Percent Control", "description": "as §1"}, "CDK4-cyclinD3": {"biological_target": "CDK4-cyclinD3 (Homo sapiens, UniProt P11802)", "details": "1000 nM, read-out: Percent Control", "description": "as §1"}, "CSF1R-autoinhibited": {"biological_target": "CSF1R-autoinhibited (Homo sapiens, UniProt P07333)", "details": "1000 nM, read-out: Percent Control", "description": "as §1"}, "CSNK1G3": {"biological_target": "CSNK1G3 (Homo sapiens, UniProt Q9Y6M4)", "sequence (Q9Y6M4 whole entry)": "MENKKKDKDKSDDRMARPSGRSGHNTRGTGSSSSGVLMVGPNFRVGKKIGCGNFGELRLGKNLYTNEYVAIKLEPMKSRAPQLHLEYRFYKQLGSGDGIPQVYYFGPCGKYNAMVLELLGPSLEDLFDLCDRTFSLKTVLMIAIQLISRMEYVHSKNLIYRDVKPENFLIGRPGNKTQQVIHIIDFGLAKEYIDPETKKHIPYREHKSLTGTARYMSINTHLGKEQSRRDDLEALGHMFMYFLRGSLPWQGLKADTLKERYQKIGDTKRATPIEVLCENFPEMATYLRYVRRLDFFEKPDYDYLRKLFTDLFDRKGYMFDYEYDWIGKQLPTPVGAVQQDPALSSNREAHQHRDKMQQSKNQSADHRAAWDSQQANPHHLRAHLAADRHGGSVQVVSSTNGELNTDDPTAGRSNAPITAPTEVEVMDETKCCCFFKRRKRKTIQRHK", "details": "read-out: Percent Control", "description": "as §1"}, "CSNK2A1": {"biological_target": "CSNK2A1 (Homo sapiens, UniProt P68400)", "sequence (P68400 whole entry)": "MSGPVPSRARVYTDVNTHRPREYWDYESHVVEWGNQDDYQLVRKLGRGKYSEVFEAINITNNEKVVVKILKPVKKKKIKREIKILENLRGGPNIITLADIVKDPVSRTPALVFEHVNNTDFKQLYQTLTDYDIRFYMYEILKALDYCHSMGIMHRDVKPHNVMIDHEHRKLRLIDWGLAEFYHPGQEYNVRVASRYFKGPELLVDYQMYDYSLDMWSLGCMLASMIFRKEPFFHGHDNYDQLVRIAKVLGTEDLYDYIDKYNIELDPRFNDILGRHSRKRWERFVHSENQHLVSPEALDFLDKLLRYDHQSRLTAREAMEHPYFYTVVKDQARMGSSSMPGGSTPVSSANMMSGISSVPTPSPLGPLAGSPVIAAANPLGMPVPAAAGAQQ", "details": "read-out: Percent Control", "description": "as §1"}, "DAPK2": {"biological_target": "DAPK2 (Homo sapiens, UniProt Q9UIK4)", "details": "1000 nM, read-out: Percent Control", "description": "as §1"}, "DLK": {"biological_target": "DLK (Homo sapiens, UniProt Q12852)", "details": "1000 nM, read-out: Percent Control", "description": "as §1"}, "EPHA6": {"biological_target": "EPHA6 (Homo sapiens, UniProt Q9UF33)", "details": "1000 nM, read-out: Percent Control", "description": "as §1"}, "ERK1": {"biological_target": "ERK1 (Homo sapiens, UniProt P27361)", "sequence (P27361 whole entry)": "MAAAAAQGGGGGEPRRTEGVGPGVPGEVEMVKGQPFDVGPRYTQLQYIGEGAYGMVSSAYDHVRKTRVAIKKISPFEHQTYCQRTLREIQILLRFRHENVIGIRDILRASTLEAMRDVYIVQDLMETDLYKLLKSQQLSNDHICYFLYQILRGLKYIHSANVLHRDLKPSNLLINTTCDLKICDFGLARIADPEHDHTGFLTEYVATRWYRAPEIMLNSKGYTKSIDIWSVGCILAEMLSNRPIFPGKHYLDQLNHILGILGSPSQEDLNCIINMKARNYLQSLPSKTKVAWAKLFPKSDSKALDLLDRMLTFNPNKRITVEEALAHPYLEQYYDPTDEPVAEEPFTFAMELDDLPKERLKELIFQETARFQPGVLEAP", "details": "read-out: Percent Control", "description": "as §1"}, "FES": {"biological_target": "FES (Homo sapiens, UniProt P07332)", "sequence (P07332 whole entry)": "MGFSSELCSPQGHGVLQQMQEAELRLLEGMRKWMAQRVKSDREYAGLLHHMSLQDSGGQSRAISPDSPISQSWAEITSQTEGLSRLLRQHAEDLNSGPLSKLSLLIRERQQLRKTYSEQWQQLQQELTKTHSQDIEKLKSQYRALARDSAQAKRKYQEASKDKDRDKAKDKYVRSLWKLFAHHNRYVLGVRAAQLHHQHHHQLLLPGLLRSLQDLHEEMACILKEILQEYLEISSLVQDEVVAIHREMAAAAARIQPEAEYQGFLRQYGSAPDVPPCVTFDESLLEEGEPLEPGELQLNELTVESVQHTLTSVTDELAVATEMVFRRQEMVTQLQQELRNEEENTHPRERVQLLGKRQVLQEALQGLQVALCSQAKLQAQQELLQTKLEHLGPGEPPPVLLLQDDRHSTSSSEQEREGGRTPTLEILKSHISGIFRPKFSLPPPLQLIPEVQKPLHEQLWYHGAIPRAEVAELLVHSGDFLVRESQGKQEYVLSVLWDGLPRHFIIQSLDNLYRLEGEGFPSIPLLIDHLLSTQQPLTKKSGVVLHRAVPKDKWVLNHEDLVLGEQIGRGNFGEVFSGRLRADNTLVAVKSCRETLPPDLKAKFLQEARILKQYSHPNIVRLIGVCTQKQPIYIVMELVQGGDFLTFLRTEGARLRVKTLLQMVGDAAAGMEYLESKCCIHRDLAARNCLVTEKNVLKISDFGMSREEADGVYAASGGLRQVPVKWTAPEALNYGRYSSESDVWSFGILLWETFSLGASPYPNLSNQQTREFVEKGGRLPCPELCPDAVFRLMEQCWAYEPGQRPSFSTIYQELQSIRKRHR", "details": "read-out: Percent Control", "description": "as §1"}, "FLT3(ITD)": {"test_system": "FLT3(ITD)", "details": "1000 nM", "description": "as §1"}, "FLT3-autoinhibited": {"biological_target": "FLT3-autoinhibited (Homo sapiens, UniProt P36888)", "details": "1000 nM, read-out: Percent Control", "description": "as §1"}, "IRAK4": {"biological_target": "IRAK4 (Homo sapiens, UniProt Q9NWZ3)", "details": "compound concentration 100 nM; Entrez IRAK4; read-out: Percent Control", "description": "as §1"}, "ITK": {"biological_target": "ITK (Homo sapiens, UniProt Q08881)", "details": "1000 nM, read-out: Percent Control", "description": "as §1"}, "LCK": {"biological_target": "LCK (Homo sapiens, UniProt P06239)", "details": "1000 nM, read-out: Percent Control", "description": "as §1"}, "MAP4K3": {"biological_target": "MAP4K3 (Homo sapiens, UniProt Q8IVH8)", "details": "1000 nM, read-out: Percent Control", "description": "as §1"}, "MAST1": {"biological_target": "MAST1 (Homo sapiens, UniProt Q9Y2H9)", "details": "1000 nM, read-out: Percent Control", "description": "as §1"}, "MYO3B": {"biological_target": "MYO3B (Homo sapiens, UniProt Q8WXR4)", "details": "1000 nM, read-out: Percent Control", "description": "as §1"}, "NEK4": {"biological_target": "NEK4 (Homo sapiens, UniProt P51957)", "details": "compound concentration 100 nM; Entrez NEK4; read-out: Percent Control", "description": "as §1"}, "NIM1": {"biological_target": "NIM1 (Homo sapiens, UniProt Q8IY84)", "details": "compound concentration 100 nM; Entrez MGC42105; read-out: Percent Control", "description": "as §1"}, "PIK3C2B": {"biological_target": "PIK3C2B (Homo sapiens, UniProt O00750)", "details": "compound concentration 100 nM; Entrez PIK3C2B; read-out: Percent Control", "description": "as §1"}, "PLK1": {"biological_target": "PLK1 (Homo sapiens, UniProt P53350)", "details": "1000 nM, read-out: Percent Control", "description": "as §1"}, "PRKCE": {"biological_target": "PRKCE (Homo sapiens, UniProt Q02156)", "details": "compound concentration 100 nM; Entrez PRKCE; read-out: Percent Control", "description": "as §1"}, "PRP4": {"biological_target": "PRP4 (Homo sapiens, UniProt Q13523)", "details": "compound concentration 100 nM; Entrez PRPF4B; read-out: Percent Control", "description": "as §1"}, "RIPK4": {"biological_target": "RIPK4 (Homo sapiens, UniProt P57078)", "details": "1000 nM, read-out: Percent Control", "description": "as §1"}, "SBK1": {"biological_target": "SBK1 (Homo sapiens, UniProt Q52WX2)", "details": "compound concentration 100 nM; Entrez SBK1; read-out: Percent Control", "description": "as §1"}, "SRPK1": {"biological_target": "SRPK1 (Homo sapiens, UniProt Q96SB4)", "details": "1000 nM, read-out: Percent Control", "description": "as §1"}, "STK33": {"biological_target": "STK33 (Homo sapiens, UniProt Q9BYT3)", "details": "compound concentration 100 nM; Entrez STK33; read-out: Percent Control", "description": "as §1"}, "TEC": {"biological_target": "TEC (Homo sapiens, UniProt P42680)", "details": "compound concentration 100 nM; Entrez TEC; read-out: Percent Control", "description": "as §1"}, "TNIK": {"biological_target": "TNIK (Homo sapiens, UniProt Q9UKE5)", "details": "1000 nM, read-out: Percent Control", "description": "as §1"}, "ULK3": {"biological_target": "ULK3 (Homo sapiens, UniProt Q6PHR2)", "details": "1000 nM, read-out: Percent Control", "description": "as §1"}},
  "data": [
    {"smiles": "CN1C(=O)[C@@H](N2CCc3c(nn(Cc4ccccc4)c3C(N)=O)C2=O)COc2cc(Cl)ccc21", "note": "[Compound 10, (S)-2-benzyl-6-(8-chloro-5-methyl-4-oxo-2,3,4,5-tetrahydrobenzo[b][1,4]oxazepin-3-yl)-7-oxo-4,5,6,7-tetrahydro-2H-pyrazolo[3,4-c]pyridine-3-carboxamide]", "values": [
      {"measurement": "remaining binding at 1 µM", "setting": "ABL1-nonphosphorylated; 1000 nM", "result": 100, "unit": "%"},
      {"measurement": "remaining binding at 0.1 µM", "setting": "ABL1-nonphosphorylated; compound concentration 100 nM, Entrez ABL1", "result": 100, "unit": "%"},
      {"measurement": "remaining binding at 1 µM", "setting": "ACVRL1", "result": 91, "unit": "%"},
      {"measurement": "remaining binding at 1 µM", "setting": "AKT1", "result": 91, "unit": "%"},
      {"measurement": "remaining binding at 1 µM", "setting": "AURKA", "result": 72, "unit": "%"},
      {"measurement": "remaining binding at 1 µM", "setting": "AXL; 1000 nM", "result": 100, "unit": "%"},
      {"measurement": "remaining binding at 0.1 µM", "setting": "AXL; compound concentration 100 nM, Entrez AXL", "result": 95, "unit": "%"},
      {"measurement": "remaining binding at 1 µM", "setting": "BMX; 1000 nM", "result": 100, "unit": "%"},
      {"measurement": "remaining binding at 0.1 µM", "setting": "BMX; compound concentration 100 nM, Entrez BMX", "result": 100, "unit": "%"},
      {"measurement": "remaining binding at 1 µM", "setting": "CDK4-cyclinD3", "result": 95, "unit": "%"},
      {"measurement": "remaining binding at 1 µM", "setting": "CSF1R-autoinhibited", "result": 74, "unit": "%"},
      {"measurement": "remaining binding at 1 µM", "setting": "CSNK1G3; 1000 nM", "result": 100, "unit": "%"},
      {"measurement": "remaining binding at 0.1 µM", "setting": "CSNK1G3; compound concentration 100 nM, Entrez CSNK1G3", "result": 98, "unit": "%"},
      {"measurement": "remaining binding at 1 µM", "setting": "CSNK2A1; 1000 nM", "result": 100, "unit": "%"},
      {"measurement": "remaining binding at 0.1 µM", "setting": "CSNK2A1; compound concentration 100 nM, Entrez CSNK2A1", "result": 82, "unit": "%"},
      {"measurement": "remaining binding at 1 µM", "setting": "DAPK2", "result": 86, "unit": "%"},
      {"measurement": "remaining binding at 1 µM", "setting": "DLK", "result": 81, "unit": "%"},
      {"measurement": "remaining binding at 1 µM", "setting": "EPHA6", "result": 86, "unit": "%"},
      {"measurement": "remaining binding at 1 µM", "setting": "ERK1; 1000 nM", "result": 100, "unit": "%"},
      {"measurement": "remaining binding at 0.1 µM", "setting": "ERK1; compound concentration 100 nM, Entrez MAPK3", "result": 93, "unit": "%"},
      {"measurement": "remaining binding at 1 µM", "setting": "FES; 1000 nM", "result": 100, "unit": "%"},
      {"measurement": "remaining binding at 0.1 µM", "setting": "FES; compound concentration 100 nM, Entrez FES", "result": 100, "unit": "%"},
      {"measurement": "Percent Control", "setting": "FLT3(ITD)", "result": 77, "unit": "%"},
      {"measurement": "remaining binding at 1 µM", "setting": "FLT3-autoinhibited", "result": 94, "unit": "%"},
      {"measurement": "remaining binding at 0.1 µM", "setting": "IRAK4", "result": 100, "unit": "%"},
      {"measurement": "remaining binding at 1 µM", "setting": "ITK", "result": 89, "unit": "%"},
      {"measurement": "remaining binding at 1 µM", "setting": "LCK", "result": 82, "unit": "%"},
      {"measurement": "remaining binding at 1 µM", "setting": "MAP4K3", "result": 92, "unit": "%"},
      {"measurement": "remaining binding at 1 µM", "setting": "MAST1", "result": 75, "unit": "%"},
      {"measurement": "remaining binding at 1 µM", "setting": "MYO3B", "result": 96, "unit": "%"},
      {"measurement": "remaining binding at 0.1 µM", "setting": "NEK4", "result": 91, "unit": "%"},
      {"measurement": "remaining binding at 0.1 µM", "setting": "NIM1", "result": 99, "unit": "%"},
      {"measurement": "remaining binding at 0.1 µM", "setting": "PIK3C2B", "result": 86, "unit": "%"},
      {"measurement": "remaining binding at 1 µM", "setting": "PLK1", "result": 73, "unit": "%"},
      {"measurement": "remaining binding at 0.1 µM", "setting": "PRKCE", "result": 91, "unit": "%"},
      {"measurement": "remaining binding at 0.1 µM", "setting": "PRP4", "result": 67, "unit": "%"},
      {"measurement": "remaining binding at 1 µM", "setting": "RIPK4", "result": 83, "unit": "%"},
      {"measurement": "remaining binding at 0.1 µM", "setting": "SBK1", "result": 68, "unit": "%"},
      {"measurement": "remaining binding at 1 µM", "setting": "SRPK1", "result": 88, "unit": "%"},
      {"measurement": "remaining binding at 0.1 µM", "setting": "STK33", "result": 80, "unit": "%"},
      {"measurement": "remaining binding at 0.1 µM", "setting": "TEC", "result": 86, "unit": "%"},
      {"measurement": "remaining binding at 1 µM", "setting": "TNIK", "result": 96, "unit": "%"},
      {"measurement": "remaining binding at 1 µM", "setting": "ULK3", "result": 93, "unit": "%"}
    ]}
  ]
}
